Source: the supplement of paper PMC5412046
Counter-ions that a name gives are not always drawn.

Columns and labels:
SB.msgc-1 [1] = experiment: viability at highest tested concentration (MAXR) relative to DMSO; higher = less cytotoxic; conditions: SB.msgc-1 (sporadic gastric cancer)
Summary of the method: (§1)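 In 1536-well plates, each well held 500 gastric cancer cells of hereditary or sporadic patient origin in 5 μL medium. Compound in DMSO (23 nL, pintool) was added at 11 concentrations spaced threefold apart, and the top concentration was noted per compound. Luminescence was read on a ViewLux after a 48 h incubation and a 30 min room-temperature treatment with CellTiter-Glo. Figures give viability normalised to DMSO, either at the highest concentration or as trapezoidal area under the curve.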

SB.mhdgc-1 [2] = experiment: as above; conditions: SB.mhdgc-1 (hereditary c.1380delA CDH1 gastric cancer)
Summary of the method: as §1

SB.msgc-1 [3] = experiment: area under the dose-response curve of % viability (trapezoidal, 11 doses) (% viability x log10 concentration); higher = less cytotoxic; conditions: SB.msgc-1 (sporadic gastric cancer)
Summary of the method: as §1

SB.mhdgc-1 [4] = experiment: as above; conditions: SB.mhdgc-1 (hereditary c.1380delA CDH1 gastric cancer)
Summary of the method: as §1

SMILES	viability (SB.msgc-1 [1]) [%]	viability (SB.mhdgc-1 [2]) [%]	area under the dose-response curve (SB.msgc-1 [3])	area under the dose-response curve (SB.mhdgc-1 [4])
C[C@H](O)[C@H]1[C@@H]2[C@H](C)C(=C(\N2C1=O)C(O)=O)/S[C@@H]3CN[C@H](CN[S+](N)([O-])=O)C3 [Doripenem] (top concentration 46.0829 µM)	108	89	566	496
c1cc(-c2cnn3cc(-c4ccc(OCCN5CCCCC5)cc4)cnc23)ccn1 [Dorsomorphin] (top concentration 46.0829 µM)	2.98	2.62	433	436
CCN[C@H]1C[C@H](C)[S+](=O)([O-])c2sc([S+](N)(=O)[O-])cc21 [Dorzolamide hydrochloride] (top concentration 46.0829 µM)	98.2	138	539	526
CCOC(=O)N1CCN(/[N+]([O-])=N/Oc2cc(O/N=[N+](\[O-])N3CCN(C(=O)OCC)CC3)c([N+](=O)[O-])cc2[N+](=O)[O-])CC1 [Double JS-K] (top concentration 46.0829 µM)	3.75	4.82	511	432
CN1CCN(CC1)C2=CC3=C([NH]C(=N3)C/4=C(\N)C5=C(F)C=CC=C5NC4=O)C=C2 [Dovitinib] (top concentration 46.0829 µM)	48.2	17	481	543
COc1cc2nc(N3CCN(C(=O)C4COc5ccccc5O4)CC3)nc(N)c2cc1OC (centres undefined) [Doxazosin mesylate] (top concentration 46.0829 µM)	104	55.6	568	569
C=C1/C(=C\C=C2/CCC[C@]3(C)[C@@H]([C@H](C)/C=C/[C@H](C)C(C)C)CC[C@@H]23)C[C@@H](O)C[C@@H]1O [Doxercalciferol] (top concentration 46.0829 µM)	3.9	18.7	340	369
C[C@H]1O[C@H]([C@H](O)[C@@H]1O)N2\C=C(F)/C(=O)NC2=O [Doxifluridine] (top concentration 46.0829 µM)	65.6	58.7	567	457
COc1cccc2c1C(=O)c1c(O)c3c(c(O)c1C2=O)C[C@@](O)(C(=O)CO)C[C@@H]3O[C@H]1C[C@H](N)[C@H](O)[C@H](C)O1 [Doxorubicin] (top concentration 46.0829 µM)	42.6	41.4	386	350
C[C@@H]1[C@H]\2[C@H](O)[C@H]3[C@H](N(C)C)\C(=C(C(N)=O)/C(=O)[C@@]3(O)\C(=C2C(=O)C4=C(O)C=CC=C14)O)O [Doxycycline] (top concentration 46.0829 µM)	59.7	84	467	507
CCCCc1oc2ccc(NS(C)(=O)=O)cc2c1C(=O)c1ccc(OCCCN(CCCC)CCCC)cc1 [Dronedarone] (top concentration 46.0829 µM)	2.88	3.4	512	476
C[C@]\12CCC(=O)\C=C1[C@@H]3C[C@@H]3[C@@H]4[C@@H]2CC[C@@]5(C)[C@H]4[C@@H]6C[C@@H]6[C@@]57CCC(=O)O7 [Drospirenone] (top concentration 46.0829 µM)	80.6	120	550	524
Cc1cc(Cl)ccc1OCCCC(=O)NO [Droxinostat] (top concentration 46.0829 µM)	15.1	6.87	411	375
CNCC[C@H](Oc1cccc2ccccc12)c1cccs1 [Duloxetine hydrochloride] (top concentration 46.0829 µM)	21.1	6.33	435	416
C[C@]12CC[C@H]3[C@@H](CC[C@H]4NC(=O)\C=C/[C@]34C)[C@@H]1CC[C@@H]2C(=O)NC5=CC(=CC=C5C(F)(F)F)C(F)(F)F [Dutasteride] (top concentration 46.0829 µM)	31.9	36.3	463	561
Cn1c(=O)c2c(ncn2CC(O)CO)n(C)c1=O (centres undefined) [Dyphylline] (top concentration 46.0829 µM)	103	117	537	543
CCOc1cc2c(c(F)c1OCC)C(=N)N(CC(=O)c1cc(N3CCOCC3)c(OC)c(C(C)(C)C)c1)C2 [E5555] (top concentration 46.0829 µM)	5.86	2.89	471	401
COc1ccc([S+](=O)([O-])Nc2cccnc2Nc2ccc(O)cc2)cc1 [E-7010] (top concentration 46.0829 µM)	40.2	47	378	474
CCOC(=O)C/1=C(O)/C(=O)N(CC2=CC=CC=C2)C1 [EBPC] (top concentration 46.0829 µM)	104	93.3	581	534
Cc1ccccc1C(=O)c1ccc(Nc2ccc(Br)cc2N)cc1Cl [EO-1428] (top concentration 46.0829 µM)	70.2	53.6	528	525
NC(=O)C1CCCc2c1[nH]c1ccc(Cl)cc21 (centres undefined) [EX-527] (top concentration 46.0829 µM)	69.3	70.6	489	521
